Square brackets hold non-standard residues; d marks the D form. Ends that are not written are not given here. Nle = CCCC[C@H](N)C(=O)O
Columns and labels:
hBCSCs [1] = experiment: Scratch (wound-healing) assay of hBCSC migration; format: cell-based, human; settings: 2 h treatment, 2 μM docetaxel or 1 μM TH1902; images at 24 and 48 h
Experimental: Inhibition of hBCSC Migration by Test Articles. Cell migration experiments were carried out using the scratch (wound-healing) assay. Cells (2.8×10^5 cells /well) were plated in 6-well plates for 24 hours and then scratched using a sterile p200 pipette tip. Cells were washed with serum-free medium to remove the detached cells, then treated for 2 hours with serum-free medium containing vehicle (DMSO), 2 μM Docetaxel, or 1 μM TH1902. Cells were rinsed with complete media and incubated for 48 hours in a fresh complete media. Images were acquired, at 0, 24 and 48 hours after scratching, with an inverted microscope.

hBCSCs [2] = experiment: hBCSC apoptosis by flow cytometry (annexin V-FITC/PI); format: cell-based, human; settings: 2 h treatment, 4 μM docetaxel or 2 μM TH1902; 22 h, 48 h, 72 h post-treatment
Experimental: Assessment of hBCSC Apoptosis by Flow Cytometry. AnnexinV/PI staining was performed using an Apoptosis Detection Kit (BD Pharmingen, Mississauga ON) according to the manufacturer's instructions. Briefly, hBCSCs (1.3×10^5 cells/well) were seeded for 24 hours in 12-well plates. Cells were treated in serum-deprived medium for 2 hours with vehicle (DMSO), 4 μM Docetaxel or 2 μM TH1902. Cells were washed with complete medium and incubated in fresh complete medium for 22, 48, and 72 hours. Cells were finally harvested, resuspended in a staining solution of 100 μl of 1×binding buffer containing 5 μL of annexinV-FITC and 5 μL of PI. Cells were incubated for 15 minutes at room temperature in the dark before analysis by flow cytometry. The extent of apoptosis was measured, then analyzed using BD Accuri™ C6 software.

MDA-MB-231/luc cells = experiment: Cell cycle analysis (G2/M) of MDA-MB-231/luc cells; format: cell-based, human; settings: MDA-MB-231 cells
Experimental: Cell Cycle Analysis Following Treatment of hBCSC by Test Articles. hBCSCs (2.8×10^5 cells/well) and MDA-MB-231/luc cells (2.3×10^5 cells/well) were seeded in 6-well plates one day prior to treatment. To test the effects of Docetaxel and TH1902 on cell cycle phases, hBCSCs and MDA-MB-231/luc cells were treated for 2 hours in serum-free media with vehicle (DMSO), 4 μM docetaxel or 2 μM TH1902 (equimolar of docetaxel), rinsed with complete media and incubated in fresh complete media for 22 and 48 hours. For the experiments with the P-gp inhibitors, hBCSCs were first pre-treated for 30 minutes in serum-free media with vehicle (DMSO), or 10 μM cyclosporine A or PSC-833 (P-gp inhibitors). Next, cells were treated for 2 hours with 4 μM docetaxel or 2 μM TH1902 in the continued presence or absence of the P-gp inhibitors before being rinsed and incubated in fresh complete media in the continued presence or absence of the P-gp inhibitors. Cells were then incubated for 22 and 48 hours. In both assays, following the incubation, cells were detached with trypsin, fixed with ice-cold 70% EtOH and kept overnight at 4° C. Cells were washed once with PBS, after which they were stained for 30 minutes at room temperature with FxCycle™ PI/RNase Staining Solution (Thermo Scientific, Waltham, MA; #F10797). Cells were finally subjected to cell cycle analysis using a BD Accuri™ C6 flow cytometer.

[3] = system: MDA-MB-231/luciferase tumor xenografts; experiment: Cancer relapse in MDA-MB-231/luciferase xenograft mouse model of TNBC; format: in vivo, mice; settings: treated at day 0, 7, 14 and 21; for cancer relapse at later time points (day 74): assessed up to day 74
Experimental: It was then assessed whether treatment with docetaxel or TH1902 could prevent cancer relapse using the MDA-MB-231/luciferase xenograft mouse model of TNBC. The MDA-MB-231 tumor cell has been reported to have cells with cancer stem cell (CSC)-like properties (Sleeboom et al., Int J Mol Sci. 2018 October; 19(10): 3047; Ghanbari et al., Int. J. Morphol., 34(4):1197-1202, 2016). Mice with MDA-MB-231/luciferase tumor xenografts were treated a day 0, 7, 14 and 21 with either vehicle (control), Docetaxel or TH1902 and tumor growth was assessed up to day 74.

hBCSC xenografts = experiment: Growth of hBCSC xenografts in mice; format: in vivo; settings: for growth of tumors originating from breast CSCs: weekly i.v., TH1902 at doses equivalent to 1, 1.25 or 1.5 the MTD of docetaxel, docetaxel 15 mg/kg (MTD)
From the text: (§1) In vivo Assessment of Docetaxel and TH1902 Anti-Tumor Efficacy. Tumor xenografts were established by subcutaneous inoculation of 10^3 hBCSC cells, hOvCSC and hPCSC resuspended in […] of HBSS containing 50% Matrigel™, into the right flank of NCG triple immunodeficient female mice (Charles River, Saint-Constant QC) under light isoflurane anesthesia. Three days following implantation of either hBCSC or hOvCSCS, mice commenced receiving weekly treatment by intravenous bolus injections of vehicle (10% polysorbate-80, 5% dextrose, 0.04% formic acid pH 4.3), docetaxel (15 mg/kg (the MTD for this agent) or 3.75 mg/kg (¼ MTD for this agent), dissolved in 5% dextrose, 3.3% ethanol, 1.7% Tween™-80) or TH1902 (35 mg/kg or 8.75 mg/kg) dissolved in vehicle. Note that the two TH1902 and docetaxel concentrations contain equimolar amounts of docetaxel due to the two docetaxel moieties per TH1902 molecule. Tumor growth was measured using two-dimensional measurements taken with an electronic caliper, and tumor volume was calculated according to the following formula: tumor volume (mm^3)=π/6×length×width^2. Animal weights were measured three times per week with a precision of 10 mg.

pancreatic CSCs = experiment: Growth of tumors originating from pancreatic CSCs in mice; format: in vivo; settings: TH1902 at doses equivalent to 1, 1.25 or 1.5 the MTD of docetaxel; docetaxel 15 mg/kg (MTD)
From the text: as §1

[4] = format: in vivo, mice
From the text: as §1

Row | Molecule | recolonization of scratched region by hBCSCs (migration) (hBCSCs [1]) | total apoptosis (hBCSCs [2]) | G2/M cell cycle arrest at 22 h (MDA-MB-231/luc cells) | tumor growth during and shortly after administration [3] | cancer relapse at later time points (day 74) [3] | tumor growth curve at 8.75 mg/kg TH1902 (eq. to 1/4 of docetaxel MTD) (hBCSC xenografts; hBCSC xenografts, weekly, FIG. 8A) | growth of tumors originating from breast CSCs (hBCSC xenografts) | growth of tumors originating from pancreatic CSCs (pancreatic CSCs) | effect on animals' weight ([4]; FIGS. 8C, 9C and 10C) | weight loss ([4]; mouse, in vivo)
1 | Acetyl-GVRAK(docetaxel)AGVRN(Nle)FK(docetaxel)SESY (Ac-GVRAK(docetaxel)AGVRN[Nle]FK(docetaxel)SESY) [TH1902] | remained virtually barren of hBCSC for at least 48 hours | large increase in apoptosis | some G2/M cell cycle arrest being detected at 22 h | reduction in tumor growth | No residual tumor could be detected | virtual overlap between the 15 mg/kg docetaxel curve and the 8.75 mg/kg TH1902 curve | significant inhibition of the growth of tumors | significant inhibition of the growth of tumors | no or minimal effect | 
2 | CC(=O)O[C@@]12CO[C@@H]1C[C@H](O)[C@@]1(C)C(=O)[C@H](O)C3=C(C)[C@@H](OC(=O)[C@H](O)[C@@H](NC(=O)OC(C)(C)C)c4ccccc4)C[C@@](O)([C@@H](OC(=O)c4ccccc4)[C@H]21)C3(C)C [docetaxel, reference compound] | completely recolonized | indistinguishable from that seen in control cells | not | reduction in tumor growth | tumor resurgence was observed |  | no significant reduction of tumor growth | no significant reduction of tumor growth |  | 5-10%
